The values that follow are results of earlier work, collected in patent publication US20080207601A1, “Methods of and Compositions For the Prevention of Anxiety, Substance Abuse, and Dependence” (Hythiam , Inc., priority 2005, published 2008).

For data set [1] the following is noted: in vivo.
Assay in data set [2]: not given
The source holds these as a separate data set.

The next data set concerns allopregnanolone. As to conditions: clinical studies.
For data set [3] the following is noted: as much as.

Take `N[C@@H]1C[C@H]1c1ccccc1` (racemic) [TRANYLCYPROMINE]: the “time in which the drug is excreted” value in data set [1] is 24 h. Take `COc1ccc2c3c1O[C@H]1[C@@H](O)CC[C@H]4[C@@H](C2)N(C)CC[C@@]341` [DIHYDROCODEINE]: the “potency relative to codeine” value (in vivo) is listed as “Dihydrocodeine is approximately twice as potent as codeine; this is”.

For `C[C@]12C=CC(=O)N[C@@H]1CC[C@@H]1[C@@H]2CC[C@]2(C)[C@@H](C(=O)Nc3cc(C(F)(F)F)ccc3C(F)(F)F)CC[C@@H]12` [Dutasteride, (5α,17β)-N-{2,5 bis(trifluoromethyl)phenyl}-3-oxo-4-azaandrost-1-ene-17-carboxamide], in data set [2] (daily doses of 5 mg, 60 subjects, 6 months), the “adverse effects compared with therapeutic dose of 0.5 mg” value was “subjects for 6 months with no additional adverse effects to those”. Also, in data set [2] (single doses up to 40 mg (80 times the therapeutic dose) for 7 days, volunteer studies), the safety concerns result was “without significant safety concerns. In a clinical study, daily doses”. Consider `CNCCC(Oc1ccc(C(F)(F)F)cc1)c1ccccc1` (centres unmarked) [Fluoxetine], for which, in the data set on allopregnanolone, the “brain and cerebrospinal fluid content of allopregnanolone” value was “increase”. For `CCCC(C)(COC(N)=O)COC(N)=O` [MEPROBROMATE], in data set [3], the “ingested amount with reported survival” value is listed as “much as 40 g”. Take `COc1cccc(C2(O)CCCCC2CN(C)C)c1` (centres unmarked) [TRAMADOL]: for the setting “IV/IM route”, the “potency relative to morphine” value was “Tramadol is approximately 10% as potent as morphine, when given”.

With `CN1C(=O)CN=C(c2ccccc2)c2cc(Cl)ccc21` [diazepam], in the data set on GABAA receptors (10 μM diazepam substituted for ethanol), the “effect on the positive modulation of 3 μM flumazenil induced by ethanol withdrawal” value is “negated the positive modulation”. `CC(=O)[C@H]1CC[C@H]2[C@@H]3CC[C@@H]4C[C@@H](O)CC[C@]4(C)[C@H]3CC[C@]12C` [epipregnanolone]: in the data set on GABAA receptor, the “effect on potentiation of GABAA receptor function by allopregnanolone and alphaxalone” value was “inhibited”.

As for `CCOC(=O)c1ncn2c1CN(C)C(=O)c1cc(F)ccc1-2` [flumazenil, ethyl 8-fluoro-5,6-dihydro-5-methyl-6-oxo-4H-imidazo-[1,5-a][1,4]benzodiazepine-3-carboxylate], the “modulation of the GABA evoked Cl-current” value in the data set on GABAA receptors (3 μM flumazenil, ethanol withdrawn cells) is “potentiates”. Take `CC(=O)[C@H]1CC[C@H]2[C@@H]3CC[C@H]4C[C@@H](O)CC[C@]4(C)[C@H]3CC[C@]12C` [isopregnanolone]: the “effect on potentiation of GABAA receptor function by allopregnanolone and alphaxalone” value in the data set on GABAA receptor is listed as “inhibited”.
